Reference: PMC8037406, “Symbiotic NCR Peptide Fragments Affect the Viability, Morphology and Biofilm Formation of Candida Species” (International Journal of Molecular Sciences, 2021)
Where two headings read alike, the source gives them in different places. Where a SMILES comes first, the peptide text is derived from it. Bridges are numbered along the chain shown (N, C = ends).

How the values were obtained:
Candida auris 0381 = experiment: microbe, parasite or virus in culture; format: cell-based; conditions: micro-dilution, YNB medium, 4 × 10^4 cell/mL, 48 h, 30 °C, OD 620 nm; MIC = growth inhibition ≥90%; peptides 25 to 1.56 µM, fluconazole 200 to 0.78 µM; three biological repeats in triplicates; also: key: -: no growth inhibition was observed
Method: (§1) The antifungal activity of all the 14 peptides was tested against the following opportunistic human pathogen Candida species and strains: C. albicans strains ATCC 10231, SC 5314 and SZMC 1458, C. auris 0381, C. glabrata CBS 138, C. parapsilosis CBS 604 and C. tropicalis CBS 94.
(§2) All the Candida strains (Table 4) were grown overnight in YPD medium (1% pepton, 1% dextrose, 0.5% yeast extract) at 30 °C in water bath shaker prior to each experiments. The cells were harvested by centrifugation (5 min, 3000× g) washed twice with sterile distilled water and suspended in 5-fold diluted Difco Yeast Nitrogen Base w/o Amino Acids medium (Becton, Dickinson and Company, Sparks, MD, USA) supplemented with 1% dextrose, referred to as YNB medium in the text. Cells were counted in Bürker chamber and diluted to the proper concentration.
(§3) The growth inhibition of the peptides listed in Table 1 was tested in 96-well microtiter plates on Candida strains. The minimal inhibitory concentration (MIC) was determined with the micro-dilution method by adding 5 µL serially two-fold-diluted peptide solution to 95 µL of cell suspension (4 × 10^4 cell/mL) in YNB medium. After 48 h of incubation at 30 °C the optical density of the cultures was measured at 620 nm in SPECTROstar Nano plate reader (BMG LabTech, Offenburg, Germany). Minimal inhibitory concentration was defined as growth inhibition ≥90% compared to 100% growth of the untreated control. The experiments were carried out in three biological repeats always in triplicates.

[1] = system: Candida parapsilosis CBS 604; experiment: microbe, parasite or virus in culture; format: cell-based; conditions: micro-dilution, YNB medium, 4 × 10^4 cell/mL, 48 h, 30 °C, OD 620 nm; MIC = growth inhibition ≥90%; peptides 25 to 1.56 µM, fluconazole 200 to 0.78 µM; three biological repeats in triplicates; also: key: -: no growth inhibition was observed
Method: as §1, §2, §3

Candida cells = experiment: Fungicide effect, spotting of treated cells on solid YPD medium; format: cell-based, Candida species; conditions: 1.56–25 µM, 24 h treatment, dilutions spotted on solid YPD medium, 48 h, 30 °C
Method: To determine whether the inhibitory effect of the peptides is generated by fungistatic or fungicide action, the Candida cells were treated with the peptides in the same concentration range (1.56–25 µM) as in the growth inhibition assay. After 24 h 5 µL sample from the untreated control cells and from the peptide treated cells was added to 95 µL water and diluted further 10- and 100-fold. From each dilution, 5 µL was placed on solid medium and the growth of the control and peptide treated cells was compared after 48 h incubation at 30 °C. This assay confirmed that all the effective peptides, NCR335N1–19, NCR335N7–21, NCR335C1–33, NCR335C13–33, NCR335C17–33, NCR169C17–38, NCR169C17–38ox, NCR169C17–38W10,20/A provoked growth inhibition through fungicidal actions (Figure A2). The fungicide concentrations, required for the complete elimination of the Candida cells, were either equal to or twice higher than the minimum inhibitory concentrations presented in Table 2.
The same initial experimental setting was used to determine the fungicide effect of the peptides. Five µL samples were taken from the cultures after 24 h and were added to 95 µL sterile distilled water, and diluted to 10- and 100-fold (indicated as 10^4, 10^3 and 10^2 based on the cell number of the control culture in Figure A2). Five µL from each dilution were placed on solid YPD medium and the growth of the strains was detected after 48 h incubation at 30 °C.

[2] = system: C. albicans ATCC 10231 biofilm; experiment: Biofilm formation assay, XTT; format: cell-based, Candida albicans; conditions: 72 h, 37 °C, 5 % CO2, 1/8AIM medium, p ≤ 0.0001
[3] = system: C. albicans SC 5314 biofilm; experiment: Biofilm formation assay, XTT; format: cell-based, Candida albicans; conditions: 72 h, 37 °C, 5 % CO2, 1/8AIM medium, p ≤ 0.0001
[4] = system: C. albicans SZMC 1458 biofilm; experiment: Biofilm formation assay, XTT; format: cell-based, Candida albicans; conditions: 72 h, 37 °C, 5 % CO2, 1/8AIM medium, p ≤ 0.0001
[5] = system: C. tropicalis CBS 94 biofilm; experiment: Biofilm formation assay, XTT; format: cell-based, Candida tropicalis; conditions: 72 h, 37 °C, 5 % CO2, 1/8AIM medium, p ≤ 0.0001
C. albicans ATCC 10231 = experiment: Yeast-hypha morphology, bright-field microscopy; format: cell-based, Candida albicans; conditions: 3.12 µM peptide, 48 h, 1/8AIM medium, sub-lethal concentration
Description: (§4) As hyphae formation is an important virulence factor, we investigated how the broad range activity peptides, NCR335C17–33, NCR169C17–38 and NCR169C17–38ox affect the morphological switch of C. albicans ATCC 10231 and C. tropicalis between the hyphal and yeast growth forms at sub-lethal concentrations (Figure 1). […] However, not only the morphology changed, but the cell number also declined, particularly in the latter case.
(§5) To induce morphological change of C. albicans and C. tropicalis YNB medium was changed for eight-fold diluted AIM-V+AlbuMAX (BSA) medium (Gibco, Thermo Fisher Scientific, Dublin, Ireland) referred to as 1/8AIM in the text.
(§6) Bright-field microscopy. The morphology of C. albicans ATCC 10231 and C. tropicalis cells was examined after 48 h incubation with the selected peptides (NCR335C17–33 and NCR169C17–38) by Zeiss Axio Observer inverted microscope (Carl Zeiss AG, Jena, Germany). The concentration of the NCR335C17–33 was 1.56 and 3.12 µM, NCR169C17–38 1.56 or 3.12 µM while NCR169C17–38ox 0.78 or 3.12 µM, the initial cell concentration was set to 4 × 10^4 cell/mL. Cells cultivated without peptides were used as control.

C. tropicalis CBS 94 = experiment: Yeast-hypha morphology, bright-field microscopy; format: cell-based, Candida tropicalis; conditions: 0.78 µM peptide, 48 h, 1/8AIM medium
Description: as §4, §5, §6

C. auris = conditions: C. auris; for reduction of MIC in the synergistic combination: compared with single use
Method: Amphotericin B, due to its high toxicity was not included in this assay.
The effects of the different combinations of fluconazole and NCR335C17–33, NCR169C17–38 or NCR169C17–38ox were determined by standard checkerboard titration method. The fluconazole was tested in a concentration range from 6.25 to 75 µM, NCR169C17–38 and NCR169C17–38ox from 0.78 to 12.50 µM, NCR335C17–33 from 1.56 to 25 µM. The initial cell concentration in each well was 4 × 10^4 cell/mL. After the incubation for 72 h at 30 °C, the optical density of the cultures was detected at 620 nm in SPECTROstar Nano plate reader (BMG LabTech, Offenburg, Germany). The inhibitory concentrations were determined for each compound alone and in combinations. The experiments were carried out at least three times. The effect of combinations was evaluated by fractional inhibitory concentration (FIC) index. FIC = FICA + FICB. FICA = (MICA in combination)/(MICA alone); FICB = (MICB in combination)/(MICB alone)

[6] = system: Candida tropicalis CBS 94; experiment: microbe, parasite or virus in culture; format: cell-based; conditions: micro-dilution, YNB medium, 4 × 10^4 cell/mL, 48 h, 30 °C, OD 620 nm; MIC = growth inhibition ≥90%; peptides 25 to 1.56 µM, fluconazole 200 to 0.78 µM; three biological repeats in triplicates; also: key: -: no growth inhibition was observed
Method: as §1, §2, §3

Candida albicans = conditions: cited from earlier work
Description: In addition to bacteria, NCRs can also kill fungi. […] However, we noticed that, unlike the full sequence of NCR169, its C-terminal half was highly cationic (pI: 10.1) leading us to assume that this part may have antimicrobial activity.

Molecule: CC[C@H](C)[C@H](NC(=O)[C@H](CCCCN)NC(=O)[C@H](Cc1ccccc1)NC(=O)[C@H](CC(C)C)NC(=O)[C@@H]1CCCN1C(=O)[C@H](CCCCN)NC(=O)[C@H](CCCCN)NC(=O)[C@H](CO)NC(=O)[C@@H](N)CCCCN)C(=O)N[C@@H](C)C(=O)N[C@@H](CCCCN)C(=O)N[C@@H](CS)C(=O)N[C@H](C(=O)N[C@@H](CCC(=O)O)C(=O)N[C@@H](CC(N)=O)C(=O)N[C@H](C(=O)N[C@@H](CS)C(=O)N[C@H](C(=O)N[C@@H](CC(C)C)C(=O)N[C@@H](C)C(=O)N[C@@H](Cc1ccc(O)cc1)C(=O)N[C@@H](CCCCN)C(N)=O)C(C)C)C(C)C)C(C)C [NCR169C17–38W10,20/A] (H-KSKKPLFKIAKCVENVCVLAYK-NH2; N-terminus assumed)
- Minimal inhibitory concentration, Cau 0381 (Candida auris 0381): -
- Minimal inhibitory concentration, Cp CBS 604 [1]: -
- growth inhibition by fungistatic or fungicide action (Candida cells): fungicidal
- concentration significantly inhibiting biofilm formation, relative to MIC [2]: half MIC
- concentration significantly inhibiting biofilm formation, relative to MIC [3]: half MIC
- concentration significantly inhibiting biofilm formation, relative to MIC [4]: MIC
- concentration significantly inhibiting biofilm formation, relative to MIC [5]: one-fourth of the MIC

Molecule: CC[C@H](C)[C@H](NC(=O)[C@H](CCCCN)NC(=O)[C@H](Cc1ccccc1)NC(=O)[C@H](CC(C)C)NC(=O)[C@@H]1CCCN1C(=O)[C@H](CCCCN)NC(=O)[C@H](CCCCN)NC(=O)[C@H](CO)NC(=O)[C@@H](N)CCCCN)C(=O)N[C@@H](Cc1c[nH]c2ccccc12)C(=O)N[C@@H](CCCCN)C(=O)N[C@H]1CSSC[C@@H](C(=O)N[C@H](C(=O)N[C@@H](CC(C)C)C(=O)N[C@@H](Cc2c[nH]c3ccccc23)C(=O)N[C@@H](Cc2ccc(O)cc2)C(=O)N[C@@H](CCCCN)C(N)=O)C(C)C)NC(=O)[C@H](C(C)C)NC(=O)[C@H](CC(N)=O)NC(=O)[C@H](CCC(=O)O)NC(=O)[C@H](C(C)C)NC1=O [NCR169C17–38ox] (H-KSKKPLFKIWKCVENVCVLWYK-NH2; disulfide 12-17; N-terminus assumed)
- Minimal inhibitory concentration, Cp CBS 604 [1]: -
- growth inhibition by fungistatic or fungicide action (Candida cells): fungicidal
- effect on hyphal growth (C. albicans ATCC 10231): completely inhibited the hyphal growth
- effect on hyphal/yeast growth form (C. tropicalis CBS 94): the only form of the culture
- concentration significantly inhibiting biofilm formation, relative to MIC [2]: MIC
- concentration significantly inhibiting biofilm formation, relative to MIC [3]: one-fourth of the MIC
- concentration significantly inhibiting biofilm formation, relative to MIC [4]: half MIC
- concentration significantly inhibiting biofilm formation, relative to MIC [5]: half MIC
- Action (C. auris; NCR169C17–38 + NCR169C17–38ox): Synergism
- reduction of MIC in the synergistic combination (C. auris; NCR169C17–38 + NCR169C17–38ox): 8 ×
- Action (C. auris; fluconazole + NCR169C17–38ox): Synergism
- reduction of MIC in the synergistic combination (C. auris; fluconazole + NCR169C17–38ox): 8 ×

Molecule: CC[C@H](C)[C@H](NC(=O)[C@@H]1CCCN1C(=O)[C@@H](NC(=O)[C@H](CS)NC(=O)[C@H](Cc1ccc(O)cc1)NC(=O)[C@H](CO)NC(=O)[C@H](CCCCN)NC(=O)[C@H](CCCNC(=N)N)NC(=O)[C@H](CS)NC(=O)[C@H](CCCNC(=N)N)NC(=O)[C@@H](NC(=O)[C@H](CC(N)=O)NC(=O)[C@H](C)NC(=O)[C@H](CCCNC(=N)N)NC(=O)[C@H](CCCNC(=N)N)NC(=O)[C@H](CC(C)C)NC(=O)[C@H](CCCCN)NC(=O)[C@@H]1CCCN1C(=O)[C@H](CS)NC(=O)[C@H](CC(=O)O)NC(=O)[C@H](CCCCN)NC(=O)[C@H](CC(N)=O)NC(=O)[C@@H](NC(=O)[C@H](CCCCN)NC(=O)[C@H](CS)NC(=O)[C@H](CC(=O)O)NC(=O)[C@H](CO)NC(=O)[C@H](CC(C)C)NC(=O)[C@@H](NC(=O)[C@H](CC(C)C)NC(=O)[C@H](CO)NC(=O)[C@H](Cc1ccccc1)NC(=O)[C@@H](N)Cc1c[nH]cn1)[C@@H](C)CC)[C@@H](C)O)C(C)C)C(C)C)C(N)=O [NCR335C1–33] (H-HFSLILSDCKTNKDCPKLRRANVRCRKSYCVPI-NH2; N-terminus assumed)
- Minimal inhibitory concentration, Cau 0381 (Candida auris 0381): -
- Minimal inhibitory concentration, Ct CBS 94 [6]: -
- growth inhibition by fungistatic or fungicide action (Candida cells): fungicidal

Molecule: EDIGHIKYCGIVDDCYKSKKPLFKIWKCVENVCVLWYK [NCR169]
- activity against C. albicans (Candida albicans; in the studied concentration range): inactive

Molecule: RLNTTFRPLNFKMLRFWGQNRNIMKHRGQKVHFSLILSDCKTNKDCPKLRRANVRCRKSYCVPI [NCR335, 64 amino acid long cationic nodule specific cysteine-rich peptide of Medicago truncatula]
- MIC (Candida albicans; C. albicans): 1.4 to 2.5 µM
- minimal inhibitory concentrations (MIC), range over the listed cationic NCR peptides (Candida albicans; C. albicans): 1.4 to 10 µM
